Experimental data from patent publication EP0162695A1, “6-Oxygenated-1,3,,4,5-Tetrahydrobenz(cd)indol-4-amines” (SMITHKLINE BEECHAM CORPORATION, priority 1984, dated 1985).

Target: 5-HTl receptor
Test: antagonism of the effect of serotonin in an in vitro dog basilar artery preparation
Assay type: biochemical
Text: Also, selective 5-HTl receptor antagonist activity of the compounds of formula (I) may be shown by the ability to antagonize the effect of serotonin in an in vitro dog basilar artery preparation, Peroutka et al, Brain Research 259:327-330 (1983).

COc1ccc2[nH]cc3c2c1CC(N)C3 (stereo not shown) [example 1, 6-methoxy-l,3,4,5-tetrahydrobenz[cd]indole-4-amine hemioxalate]
Kb: 463 nM
